Data as given in article PMC6962389, “Somatostatin receptor mediated targeting of acute myeloid leukemia by photodynamic metal complexes for light induced apoptosis” (Scientific Reports, 2020).
Where two headings read alike, the source gives them in different places.

Key:
Format in all cases: cell-based, human
HL60 cells = test: Determination of the IC50 in HL60 cells (trypan blue exclusion, light/dark); settings: 10–100 µM
Procedure: Figure 1 Uptake and IC50 studies of RU complex: confocal images of OCI-AML3 cells incubated with RU-SST (50 μm) (A) and RU-Alkyne control (RU-Alk) (100μm) (B) for 4 hrs. The laser intensity was measured for alexaflour (430 nm). Uptake characteristics with values of the integrated intensity (a.u.) per cell (C). Bar graphs indicate the average integrated intensity per cell in both experimental arms. Cells analysed for RU-SST (n = 45) and RU-Alk (n = 44). Data are represented as mean ± SEM. (D) IC50 was calculated in HL60 AML cell lines. Percent cell survival was measured by trypan blue exclusion after 4 h incubation with RU-Alk (control), RU-SST (irradiated) compared to RU-SST in the absence of light (dark RU). Experiments performed for dark RU-SST (n = 6); RU-Alk (n = 3), for RU-SST (n = 3). Data are represented as mean ± SEM. […]
phenylalanine as an internal standard (Int. std.) was added to remove large proteins and the solution was centrifuged at […] for 30 min at 0 °C. […] The amount of RU-SST in each sample was determined as a ratio of the integration of the mass chromatogram of RU-SST to the int. std. […]
For this purpose, we chose a high SSTR2 expressing cell line, HL60 2 . […] The cell viability was quantified by trypan blue exclusion. IC50 values were calculated using R-statistical package. […]

OCI-AML3 cells = test: CFC assay (clonogenic growth in methylcellulose), OCI-AML3; settings: unconjugated control, 4 h incubation, day 14
Procedure: (§1) To evaluate the toxicity of the bioconjugate on clonogenic progenitor cells, AML cell lines as well primary human cells were incubated with the compound for 4 hours. Subsequently, cells were washed and cell counts were determined via trypan blue exclusion. Colony forming cell unit (CFC) assays were performed as described previously. In all cases cell numbers placed in methylcellulose were calculated according to the initial cell number at the start of the experiment, not taking into account any cell loss during the incubation time. 1000 cells (OCI-AML3 and HL60) and 500 cells (THP1) were plated per dish (methocult H4330). For primary patient samples, 10,000 cells were plated per dish in methylcellulose H4330 (Stem Cell Technologies, Vancouver, BC, Canada) and supplemented with cytokines. For the CD34^+ enriched CB cells, 300 cells were plated per dish in methocult H4434 (Stem Cell Technologies, Vancouver, BC, Canada). Each experiment was performed in duplicates and values mentioned are Mean ± SEM.
We could detect a significant decrease in colony growth in the OCI AML3 cell line with a 92% reduction of colony growth when the cells were incubated with RU-SST and exposed to light compared to the cells treated with RU-SST and not exposed to light (Fig. 2A).
Significance was calculated using the Mann-Whitney test (** < 0.01). […]

[1] = tested on: primary AML patient samples (clonogenic progenitor cells); test: CFC assay on primary AML patient samples; set-up: average reduction in CFC numbers, with exposure to light / % reduction of CFC: concentration or dose not given beside the values; settings: for CFC/10^4 cells: 4 h incubation, day 14
From the text: Mononuclear cells were isolated from bone marrow (BM) or peripheral blood (PB) from patients with primary diagnosed AML, analyzed for their SSTR2 expression (n = 13) and cultured with the RU-SST bioconjugate to test the toxicity of the compound (n = 6). All patient samples were investigated by cytomorphological, cytogenetic and molecular analyses after written informed consent as described. Diagnosis was made according to the French-American-British criteria and the World Health Organization classification (Table 1)[11],[12]. The study was approved by the ethic committee of the University of Ulm. in accordance with the ethical principles of the declaration of Helsinki (http://www.wma.net/en/30publications/10policies/b3/index.html). Leukemic cells were thawed and kept in culture with culture conditions as mentioned previously.
as §1

CD34+ enriched CB cells = test: CFC assay on CD34+ enriched cord blood cells; settings: unconjugated RU-Alkyne; ±4.88% SEM; n = 6 CB samples
Procedure: Cells from cord blood (CB) were enriched for CD34^+ using the human CD34 Micro Bead Kit ultrapure (Miltenyi Biotec, Auburn, CA, USA) according to the manufacturer instructions.
To evaluate the toxicity of the bioconjugate on clonogenic progenitor cells, AML cell lines as well primary human cells were incubated with the compound for 4 hours. Subsequently, cells were washed and cell counts were determined via trypan blue exclusion. Colony forming cell unit (CFC) assays were performed as described previously. In all cases cell numbers placed in methylcellulose were calculated according to the initial cell number at the start of the experiment, not taking into account any cell loss during the incubation time. 1000 cells (OCI-AML3 and HL60) and 500 cells (THP1) were plated per dish (methocult H4330). […]
To evaluate, whether the effect of the compound was selective for AML stem and progenitor cells, we analysed the toxicity of the compound for CD34^+ enriched CB cells (n = 6). […]
Figure 3 Effect of RU-complexes on clonogenicity of normal CD34^+ cells: cells from […] CD34^+ enriched cord blood (CB) samples (n = 6) were tested for the effect of both RUSST and RU-Alkyne compounds. […] Percent reduction was determined based on the colony numbers generated from CB cells treated with RU-SST and exposed to light compared to dark RU-SST. […] Significance calculated by Mann-Whitney test ** < 0.01.

Compound: C#Cc1ccnc(-c2ccccn2)c1.[Cl-].[Cl-].[Ru+2].c1ccc(-c2ccccn2)nc1.c1ccc(-c2ccccn2)nc1 [RU-Alkyne]
- IC50 (HL60 cells; 4 h incubation in the dark, washed, 470 nm LED 6 min (6.9 ± 0.9 J cm-2), probit regression, n = 3, mean ± SEM, read-out: IC50 after light irradiation): > 100 µM
- IC50 (HL60 cells; 4 h incubation, not exposed to light, IC50 not reached with up to 100 µM, dark RU-SST n = 6, read-out: IC50 in the dark): > 100 µM
- colony growth, exposed or not exposed to light (OCI-AML3 cells): no comparable reduction in colony growth
- % reduction of CFC ([1]; AML#1, 6 min RU-Alk (light) vs dark RU-SST): 22%
- CFC/10^4 cells ([1]; AML#1, 6 min RU-Alk (light)): 78 CFC/10^4 cells
- % reduction of CFC ([1]; AML#1, Dark RU-Alk vs dark RU-SST): 0%
- CFC/10^4 cells ([1]; AML#1, Dark RU-Alk): 153 CFC/10^4 cells
- % reduction of CFC ([1]; AML#2, 6 min RU-Alk (light) vs dark RU-SST): 17.7%
- CFC/10^4 cells ([1]; AML#2, 6 min RU-Alk (light)): 208 CFC/10^4 cells
- % reduction of CFC ([1]; AML#2, Dark RU-Alk vs dark RU-SST): 2.0%
- CFC/10^4 cells ([1]; AML#2, Dark RU-Alk): 247 CFC/10^4 cells
- % reduction of CFC ([1]; AML#3, 6 min RU-Alk (light) vs dark RU-SST): 0%
- CFC/10^4 cells ([1]; AML#3, 6 min RU-Alk (light)): 211 CFC/10^4 cells
- % reduction of CFC ([1]; AML#3, Dark RU-Alk vs dark RU-SST): 0%
- CFC/10^4 cells ([1]; AML#3, Dark RU-Alk): 187 CFC/10^4 cells
- % reduction of CFC ([1]; AML#4, 6 min RU-Alk (light) vs dark RU-SST): 48.9%
- CFC/10^4 cells ([1]; AML#4, 6 min RU-Alk (light)): 24 CFC/10^4 cells
- % reduction of CFC ([1]; AML#4, Dark RU-Alk vs dark RU-SST): 38.2%
- CFC/10^4 cells ([1]; AML#4, Dark RU-Alk): 29 CFC/10^4 cells
- % reduction of CFC ([1]; AML#5, 6 min RU-Alk (light) vs dark RU-SST): 41.5%
- CFC/10^4 cells ([1]; AML#5, 6 min RU-Alk (light)): 69 CFC/10^4 cells
- % reduction of CFC ([1]; AML#5, Dark RU-Alk vs dark RU-SST): 38.9%
- CFC/10^4 cells ([1]; AML#5, Dark RU-Alk): 72 CFC/10^4 cells
- % reduction of CFC ([1]; AML#6, 6 min RU-Alk (light) vs dark RU-SST): 58.7%
- CFC/10^4 cells ([1]; AML#6, 6 min RU-Alk (light)): 29 CFC/10^4 cells
- % reduction of CFC ([1]; AML#6, Dark RU-Alk vs dark RU-SST): 48.5%
- CFC/10^4 cells ([1]; AML#6, Dark RU-Alk): 36 CFC/10^4 cells
- average reduction in CFC numbers, with exposure to light ([1]; RU-Alkyne with exposure to light, 6 primary AML samples, mean (SEM), not significant): 31.4%
- reduction in colony numbers compared to dark RU-SST (CD34+ enriched CB cells): 18.59%
